# From paper PMC11249646, “Small-Molecule Disruptors of the Interaction between Calcium- and Integrin-Binding Protein 1 and Integrin αIIbβ3 as Novel Antiplatelet Agents” (ACS Pharmacology & Translational Science, 2024)
# pIC50: −log10 of the molar value. Like-named read-outs stand apart in the source and are kept apart here.
# Columns and labels:
# Assay type in all cases: binding
# [1] = target: T1, GST-CIB1 : F-scrambled peptide (Homo sapiens, UniProt Q99828); assay: FP scrambled-peptide counter screen, 384-well format; conditions: F-scrambled peptide; for pIC50: read-out: 384-well COUNTERSCREEN IC50; for 384-well COUNTERSCREEN Confirm?: *: Curve in opposite direction
# T1 construct: made in house; host or cells: BL-21 plus RIL cells (E. coli)
# T1 sequence (Q99828 1-191): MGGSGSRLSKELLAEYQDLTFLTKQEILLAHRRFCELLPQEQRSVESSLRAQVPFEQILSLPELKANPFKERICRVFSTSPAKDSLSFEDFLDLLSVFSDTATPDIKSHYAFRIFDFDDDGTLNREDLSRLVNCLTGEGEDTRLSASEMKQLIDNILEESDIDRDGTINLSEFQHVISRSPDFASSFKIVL
# [2] = target: T1, GST-CIB1 : F-scrambled peptide; assay: FP scrambled-peptide counter screen, 1536-well format; conditions: scrambled-peptide counterscreen; for COUNTERSCREEN Confirm?: YES/NO call; for COUNTERSCREEN Curve Class: qHTS curve class
# [3] = target: T2, CIB1 and αIIb interaction (CIB1-GST : F-αIIb peptide) (Homo sapiens, UniProt Q99828); assay: FP assay, 1536-well qHTS format (primary and confirmatory screen); conditions: for CONFIRMATORY SCREEN Confirm?: YES/NO call; for CONFIRMATORY SCREEN Curve Class: qHTS curve class; for CONFIRMATORY SCREEN Curve Class / Curve Class: negative sign = inhibitory curve; for CONFIRMATORY SCREEN Efficacy (%) / Efficacy (%): negative = inhibition
# T2 construct: made in house; host or cells: BL-21 plus RIL cells (E. coli)
# T2 sequence (Q99828 1-191): T1 sequence (Q99828 1-191)
# [4] = target: T3, CIB1 and αIIb interaction (GST-CIB1 : F-αIIb peptide) (Homo sapiens, UniProt Q99828); assay: FP assay, 384-well format (screen); design: 384-well SCREEN Efficacy (%): concentration or dose not given beside the values; conditions: F-αIIb peptide; for 384-well SCREEN Confirm?: YES/NO; for pIC50: read-out: 384-well SCREEN IC50
# T3 construct: made in house; host or cells: BL-21 plus RIL cells (E. coli)
# T3 sequence (Q99828 1-191): T1 sequence (Q99828 1-191)
# [5] = confirmatory screen, read-out: CONFIRMATORY SCREEN IC50
# [6] = qHTS primary screen hits, Table S2
# [7] = qHTS primary screen hits, Table S2, several classes where COUNT > 1
# [8] = qHTS primary screen hits, Table S2, read-out: IC50
Compound,384-well COUNTERSCREEN Efficacy (%) [1] [%],pIC50 [1],COUNTERSCREEN Efficacy (%) [2] [%],COUNTERSCREEN Confirm? [2],COUNTERSCREEN Curve Class [2],CONFIRMATORY SCREEN Confirm? ([3]; confirmatory screen),CONFIRMATORY SCREEN Curve Class ([3]; confirmatory screen),CONFIRMATORY SCREEN Efficacy (%) ([3]; confirmatory screen),"Efficacy (%) ([3]; qHTS FP screen hits, Table S2)","Curve Class ([3]; qHTS FP screen hits, Table S2, one class per curve where COUNT > 1)",384-well SCREEN Efficacy (%) [4] [%],384-well SCREEN Confirm? [4],pIC50 [4],384-well COUNTERSCREEN Confirm? [1],"pIC50 [3, 5]","Efficacy (%) [3, 6] [%]","Curve Class [3, 7]","pIC50 [3, 8]",pIC50 ([2]; read-out: COUNTERSCREEN IC50)
COc1ccccc1S(=O)(=O)Nc1cnccc1C(=O)Nc1nc(-c2ccccc2)cs1.O=C(O)C(F)(F)F [NCGC00344905-01],44,5.00,-15,YES,4,YES,-2.2,-79,-43,-2.2,37,YES,5.15,,,,,,
CCc1ccc(S(=O)(=O)Nc2cnccc2C(=O)Nc2nc(-c3ccccc3)cs2)cc1.O=C(O)C(F)(F)F [NCGC00344909-01],44,< 3.92,14,YES,4,YES,-2.2,-82,,,40,YES,4.45,YES,4.65,-57,-2.2,4.10,
O=C(Nc1nc(-c2ccccc2)cs1)c1ccncc1NS(=O)(=O)c1cccc2cccnc12.O=C(O)C(F)(F)F [NCGC00344938-01],18,< 3.92,-33,YES,-2.4,YES,-2.2,-93,,,16,YES,5.20,YES,4.45,-56,-2.2,4.40,4.15
Cc1ccccc1S(=O)(=O)Nc1cnccc1C(=O)Nc1nc(-c2ccccc2)cs1.O=C(O)C(F)(F)F [NCGC00344941-01],20,< 3.92,10,YES,4,YES,-1.2,-59,,,35,YES,4.75,YES,,-51,-2.2,4.35,
O=C(Nc1nc(-c2ccccc2)cs1)c1ccncc1NS(=O)(=O)c1ccccc1Cl.O=C(O)C(F)(F)F [NCGC00344943-01],31,< 3.92,25,YES,4,YES,-1.1,-98,,,32,YES,4.80,YES,,,,,
Cc1cc(S(=O)(=O)Nc2cnccc2C(=O)Nc2nc(-c3ccccc3)cs2)c(C)o1.O=C(O)C(F)(F)F [NCGC00345029-01],16,< 3.92,10,YES,4,YES,-1.1,-83,,,42,YES,4.70,YES,,,,,
